Reference: patent US11219670B2, “Targeting CAPN9/CAPNS2 activity as a therapeutic strategy for the treatment of myofibroblast differentiation and associated pathologies” (The Johns Hopkins University, priority 2014, dated 2022)
Where a SMILES comes first, the peptide text is derived from it. The star is where a group is joined. Cbz = O=C(OCc1ccccc1)*; Boc = CC(C)(C)OC(=O)*

Columns and labels:
NMuMG cells [1] = test: TGFβ1-induced EpMT in NMuMG cells (αSMA western blot, qPCR, immunofluorescence); assay type: cell-based, Mouse; settings: for TGFβ1-induced EpMT as measured by αSMA expression: western blot
Procedure: (§1) (FIG. 1B; Levels were normalized to the 72 h TGFβ1 only treated sample for each blot. Students t-test *p<0.05, **p<0.01, † p<0.005, †† p<0.001). […] (FIG. 1H; Levels were normalized to the 72 h TGFβ1 only treated sample for each blot. Students t-test *p<0.05, **p<0.01, † p<0.005, †† p<0.001). FIG. 1G and FIG. 1H show the small molecule […] SB431542 suppressed TGFβ-induced calpain activity (as measured by cleavage of Filamin A, a known calpain substrate) and TGFβ-induced phosphorylation of SMAD2, as measured by western blot (FIG. 1H) and quantified western blot data done in biological replicates (FIG. 1H; Levels were normalized to the 72 h TGFβ1 only treated sample for each blot. Student's t-test *p<0.05, **p<0.01, † p<0.005, †† p<0.001).). […] NMuMG cells pretreated with TGFβ1 for 72 hours to induce EMT, and then treated with calpain inhibitor MDL-28170 while in the continued presence of TGFβ1 for an additional 48 h or 72 h post-induction, can revert to a more epithelial phenotype as assessed by αSMA expression by western blot (FIG. 1I) and quantified western blot data done in biological replicates (FIG. 1J; Levels were normalized to TGFβ1 only treated samples within each time point. Students t-test *p<0.05).
Calpain inhibition was also found to suppress TGFβ-induced expression of genes commonly and functionally associated with fibrosis, such as collagen 1A1, vimentin and matrix metalloproteinase 2/9 (FIG. 1C). A profound decrease in E-cadherin, a cell surface protein highly expressed by epithelial cells, was observed by immunofluorescence upon stimulation with TGFβ but was prevented by treatment with calpain inhibitor MDL-28170 (FIG. 1D). […] (FIG. 1F). […]

[2] = tested on: calpain activity (cleavage of Filamin A); test: TGFβ-induced calpain activity in NMuMG cells (cleavage of Filamin A, western blot); assay type: cell-based, Mouse
Procedure: (§2) (FIG. 1B; Levels were normalized to the 72 h TGFβ1 only treated sample for each blot. Students t-test *p<0.05, **p<0.01, † p<0.005, †† p<0.001). […] (FIG. 1H; Levels were normalized to the 72 h TGFβ1 only treated sample for each blot. Students t-test *p<0.05, **p<0.01, † p<0.005, †† p<0.001).

phosphorylation of SMAD2 = test: TGFβ-induced phosphorylation of SMAD2 in NMuMG cells (western blot); assay type: cell-based, Mouse
Procedure: as §2

[3] = tested on: Primary Normal Human Lung Fibroblasts (NHLF); test: TGFβ1-induced FMT in NHLF cells (αSMA western blot); assay type: cell-based
Source text: Resident fibroblasts have also been described to undergo transformation in the presence of high TGFβ. Using Primary Normal Human Lung Fibroblasts (NHLF), it was shown that treatment with calpain inhibitor MDL-28170 (FIG. 8A and FIG. 8B) or siRNA mediated knockdown of CAPNS2 (FIG. 8C) can inhibit TGFβ1-induced FMT as measured by αSMA.

[4] = molecular target: T1, Human recombinant mini-CAPN9 (Homo sapiens, UniProt O14815); test: Biochemical assay for calpain 9 inhibition (FRET peptide substrate, FLIPR); settings: IC50 by 4 parameter logistic fitting; 10 min preincubation; ambient temperature
T1 construct: made in house; host or cells: E. coli
T1 sequence (O14815 42-337 limits assumed): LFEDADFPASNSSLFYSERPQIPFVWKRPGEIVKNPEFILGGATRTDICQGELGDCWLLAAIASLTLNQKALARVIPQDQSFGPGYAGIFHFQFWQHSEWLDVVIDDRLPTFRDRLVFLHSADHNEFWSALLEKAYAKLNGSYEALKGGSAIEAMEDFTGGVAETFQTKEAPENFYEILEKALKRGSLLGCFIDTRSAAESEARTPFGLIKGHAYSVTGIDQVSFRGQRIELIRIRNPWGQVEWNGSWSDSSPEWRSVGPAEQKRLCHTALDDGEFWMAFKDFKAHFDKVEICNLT
Procedure: Human recombinant mini-CAPN9 was expressed in E. coli and purified as described in Davis, T. L., et al. (2007) J Mol Biol 366(1): 216-229.
All enzyme reactions are run at ambient temperature (˜25° C.) in black 384 well assay plates. Inhibitors solutions in DMSO are typically semi-log serially diluted prior to further dilution in assay buffer (Tris-HCl 20 mM, KCl 100 mM, BSA 0.1%, 1 mM DTT). Calpain enzyme stocks are diluted in assay buffer without Ca (II) just prior to use (1 μM) and incubated with serially diluted test compounds at 2× concentrations in the assay plate for 10 min.
After the compound preincubation, the FLIPR liquid handler is used to initiate the reaction by adding a 2× mix of substrate (1 μM Calpain FRET peptide substrate (5-FAM/QXL 520) Anaspec (Catalog# AS-72149)) and Ca (II) (10 mM). Reactions are measured using a FLIPR Tetra reader (Molecular Devices Inc).
Slopes (reaction rates) are calculated within the 0-2 min interval using the ScreenWorks software (Molecular Devices Inc). Slopes are plotted versus test compound concentration to obtain dose-response curves. IC50 values are obtained using 4 parameter logistic fitting.

NMuMG cells [5] = test: Reversal of pre-established TGFβ-induced myofibroblast differentiation in NMuMG cells (mesenchymal-to-epithelial transition); assay type: cell-based, Mouse; settings: NMuMG pretreated with TGFβ 72 h, 48 h and 72 h post-induction
Procedure: as §1
If TGFβ-induced calpain activity is necessary to maintain myofibroblast differentiation, suppression of calpain activity after pre-establishment of myofibroblast differentiation should be sufficient for mesenchymal-to-epithelial transition and provide evidence supporting reversal of a disease state.

MDCK cells = test: TGFβ-induced EpMT in MDCK cells (αSMA western blot); assay type: cell-based, Canine
PAVEC = test: TGFβ1-induced EnMT in PAVEC (qPCR, immunofluorescence); assay type: cell-based
Source text: (FIG. 7B; E-cadherin shown in green, vimentin shown in red, DAPI nuclear marker shown in blue. Scale bar=100 μm). […] Scale bar=100 μm);
Myofibroblasts can derive from cell types other than those of epithelial origin, including endothelial cells and fibroblasts. […] (FIG. 7B). Overexpression of calpastatin inhibits TGFβ1-induced EnMT in PAVEC as measured from gene expression of αSMA, vimentin, E-cadherin, MMP2 and MMP9 (FIG. 7C) and inhibits morphological changes associated with EnMT, such as downregulation of E-cadherin/cell-cell adhesion and upregulation of vimentin. (FIG. 7D).

NCCOB(c1ccccc1)c1ccccc1 [2-APB, 2-aminoethoxydiphenyl borate]
TGFβ1-induced EpMT as measured by αSMA expression (NMuMG cells [1]): able to inhibit TGFβ1-induced αSMA expression at high doses
TGFβ-induced calpain activity (cleavage of Filamin A) [2]: suppressed
TGFβ-induced phosphorylation of SMAD2 (phosphorylation of SMAD2): without significantly affecting

CC(C)[C@H](NC(=O)OCc1ccccc1)C(=O)N[C@H](C=O)Cc1ccccc1 [MDL-28170] (Cbz-Val-Phe-aldehyde)
TGFβ1-induced FMT as measured by αSMA [3]: can inhibit
TGFβ1-induced reorganization of the actin cytoskeleton to stress fibers (NMuMG cells [1]; immunofluorescence): blocked
TGFβ-induced decrease in E-cadherin (NMuMG cells [1]; immunofluorescence): prevented
TGFβ-induced expression of genes associated with myofibroblast differentiation and/or fibrosis (Col1A1, Vimentin, MMP2, MMP9) (NMuMG cells [1]; quantitative PCR): suppresses
TGFβ1-induced EpMT as measured by αSMA expression (NMuMG cells [1]): antagonize TGFβ1-induced EpMT
IC50 [4]: 1.61 µM
TGFβ-induced calpain activity (cleavage of Filamin A) [2]: suppressed
E-cadherin expression after pre-established myofibroblast differentiation (NMuMG cells [5]): reacquired expression of the epithelial marker E-cadherin
actin cytoskeleton organisation after pre-established myofibroblast differentiation (NMuMG cells [5]): reorganized their actin cytoskeleton from stress fibers to cortical actin
αSMA expression after pre-established myofibroblast differentiation (NMuMG cells [5]; continued TGFβ1): decreased expression of αSMA
TGFβ-induced EpMT as measured from αSMA expression (MDCK cells): suppresses TGFβ-induced EpMT in MDCK cells
TGFβ-induced phosphorylation of SMAD2 (phosphorylation of SMAD2): without significantly affecting

C=CC[C@@H]1/C=C(\C)C[C@H](C)C[C@H](OC)[C@H]2O[C@@](O)(C(=O)C(=O)N3CCCC[C@H]3C(=O)O[C@H](/C(C)=C/[C@@H]3CC[C@@H](O)[C@H](OC)C3)[C@H](C)[C@@H](O)CC1=O)[C@H](C)C[C@@H]2OC [FK506, tacrolimus]
TGFβ1-induced EpMT as measured by αSMA expression (NMuMG cells [1]): able to potently suppress

CSCC[C@@H](C=O)NC(=O)[C@H](CC(C)C)NC(=O)[C@H](CC(C)C)NC(C)=O [Calpain Inhibitor II (ALLM)] (Ac-Leu-Leu-Met-aldehyde)
IC50 [4]: 3.32 µM

CC(C)C[C@@H](C=O)NC(=O)[C@H](CC(C)C)NC(=O)OCc1ccccc1 [Z-Leu-Leu-CHO]
IC50 [4]: 2.35 µM

O=C1Nc2ccc([N+](=O)[O-])cc2C1=O [5-Nitroisatin]
IC50 [4]: 42.3 µM

CCCC[C@@H](C=O)NC(=O)[C@H](CC(C)C)NC(=O)OCc1ccccc1 [Calpeptin]
TGFβ1-induced EpMT as measured by αSMA expression (NMuMG cells [1]): suppresses
IC50 [4]: 2.84 µM
TGFβ-induced calpain activity (cleavage of Filamin A) [2]: suppressed
TGFβ-induced phosphorylation of SMAD2 (phosphorylation of SMAD2): without significantly affecting

CCC(C)[C@H](NS(=O)(=O)c1cccc2ccccc12)C(=O)N[C@H](C=O)Cc1c[nH]c2ccccc12 (stereo partly drawn) [NapSul-Ile-Trp-CHO]
IC50 [4]: 6.25 µM

NS8593
TGFβ1-induced FMT as measured by αSMA [3]: able to suppress
TGFβ1-induced EpMT as measured by αSMA expression (NMuMG cells [1]): able to potently inhibit
TGFβ-induced calpain activity (cleavage of Filamin A) [2]: suppressed
TGFβ-induced phosphorylation of SMAD2 (phosphorylation of SMAD2): without significantly affecting

CC(C)C[C@@H](C=O)NC(=O)[C@@H](NS(=O)(=O)c1ccc(F)cc1)C(C)C [Calpain Inhibitor IV SJA-6017]
IC50 [4]: 2.23 µM

CC(C)C[C@H](NC(=O)[C@H]1O[C@@H]1C(=O)O)C(=O)NCCCCNC(=N)N [E-64]
IC50 [4]: 11.6 µM

CC(C)C[C@@H](C=O)NC(=O)[C@H](CC(C)C)NC(=O)[C@H](CC(C)C)NC(=O)OCc1ccccc1 [MG-132] (Cbz-Leu-Leu-Leu-aldehyde)
IC50 [4]: 9.88 µM

NC(=O)c1ccc(-c2nc(-c3ccc4c(c3)OCO4)c(-c3ccccn3)[nH]2)cc1 [SB431542]
TGFβ1-induced EpMT as measured by αSMA expression (NMuMG cells [1]): did not show
TGFβ-induced calpain activity (cleavage of Filamin A) [2]: did not show
TGFβ-induced phosphorylation of SMAD2 (phosphorylation of SMAD2): did not show

CC(=O)N[C@@H](CC(C)C)C(=O)N[C@@H](CC(C)C)C(=O)N[C@H](C=O)CCCNC(=N)N [Leupeptin Hemisulfate]
IC50 [4]: 9.24 µM

CC(C)CCNC(=O)[C@H](CC(C)C)NC(=O)[C@H]1O[C@@H]1C(=O)O [E-64-C]
IC50 [4]: 35.8 µM

CC(C)[C@H](NC(=O)CNC(=O)OC(C)(C)C)C(=O)N[C@H](C=O)C(C)C [Boc-Gly-Val-Val-CHO] (Boc-Gly-Val-Val-aldehyde)
IC50 [4]: 6.68 µM

B1: calpastatin: endogenous calpain inhibitor, mouse calpastatin overexpressed from a bicistronic vector with GFP (protein, UniProt P51125 1-788, looked up)
Calpastatin: MSQPGPKPAASPRPSRGAAARHTQEHVNEKNIGSSSKPGEKKGSDEKKAASLGSSQPSRPHVGEAATATKVTASSAATSKSPSMSTTETKAIPVNKQLEGPDQKRPREQAVKTESKKPQSSEQPVVHEKKSKGGPKEGSEPKNLPKHTSSTGSKHAHKEKALSRSNEQMVSEKPSESKTKFQDVPSAGGESVAGGGTVATALDKVVGKKKEQKPFTPASPVQSTPSKPSDKSGMDAALDDLIDTLGGHEDTNRDDPPYTGPVVLDPMYSTYLEALGIKEGTIPPEYRKLLEKNEGITQPLPDSPKPMGTDQAIDALSSDFTCSSPTGKQSEKEKSTGEIFKAQSAGVTRSSVPPKEKKRKVEEEVINDQALQALSDSLGTRQPDPPSHVSQAEQVKEAKAKEERQEKCGEDEDTVPAEYRLKPAKDKDGKPLLPEPEETSKSLSESELIGELSADFDRSTYQDKPSTPAEKKSNDTSQTPPGETVPRASMCSIRSAPPKLASLKGVVPEDAVETLAGSLGTREADPEHEKTVEDKVKEKAKEEEHEKLGEKEETVPPDYRLEEVKDKDGKPLLPKESQEQLAPLSDDFLLDALSQDFSSPANISSLEFEDAKLSAAISEVVSQTPAPSTHAAAPLPGTEQKDKELDDALDELSDSLGQRPPDPDENKPLDDKVKEKIKPEHSEKLGERDDTIPPEYRHLLDNDGKDKPEKPPTKKTEKPDQDRDPIDALSEDLDSCPSTTETSKNTAKGKSKKTSSSKASKDGEKTKDSSKKTEEVSKPKAKEDARHS
modifications: co-expressed with GFP
TGFβ1-induced EpMT as measured by αSMA expression (NMuMG cells [1]): virtually no αSMA protein
TGFβ-induced calpain activity (cleavage of Filamin A) [2]: suppressed
TGFβ-induced phosphorylation of SMAD2 (phosphorylation of SMAD2): without affecting
morphological changes associated with EnMT (downregulation of E-cadherin/cell-cell adhesion, upregulation of vimentin) (PAVEC; immunofluorescence): inhibits
TGFβ1-induced EnMT as measured from gene expression of αSMA, vimentin, E-cadherin, MMP2 and MMP9 (PAVEC; quantitative PCR): inhibits
